From article PMC11345399 (The Journal of Biological Chemistry, 2024)
Several values for one entry are separate records, joined by “and”; a condition that tells them apart may be missing. Equal values may be shown once.

What was measured:
[1] = biological target: human mitochondrial RNA polymerase (h-mtRNAP) (Homo sapiens, UniProt O00411); assay type: biochemical
[2] = biological target: T1, HRV-16 RdRp (Human rhinovirus 16, UniProt Q82122); assay type: biochemical
[3] = system: EV-71 RdRp; assay type: biochemical
[4] = biological target: SARS-CoV-2 RdRp (Severe acute respiratory syndrome coronavirus 2, UniProt P0DTD1); assay type: biochemical
[5] = biological target: MERS-CoV RdRp (Middle East respiratory syndrome-related coronavirus, UniProt K9N7C7); assay type: biochemical
[6] = biological target: T1, HRV-16 RdRp; assay type: biochemical; remark: listed apart in the source
[7] = system: EV-71 RdRp; assay type: biochemical; remark: listed apart in the source
[8] = biological target: RSV RdRp (Human respiratory syncytial virus A, UniProt P28887); assay type: biochemical
[9] = biological target: HMPV RdRp (Human metapneumovirus, UniProt Q6WB93); assay type: biochemical
[10] = biological target: HPIV-3 RdRp (Human parainfluenza 3 virus, UniProt P12577); assay type: biochemical
[11] = biological target: PIV-5 RdRp (Parainfluenza virus 5, UniProt Q88434); assay type: biochemical
[12] = biological target: T1, HRV-16 RdRp; assay type: biochemical; remark: listed apart in the source
[13] = system: EV-71 RdRp; assay type: biochemical; remark: listed apart in the source
[14] = biological target: SARS-CoV-2 RdRp complex (Severe acute respiratory syndrome coronavirus 2, UniProt P0DTD1)
[15] = biological target: MERS-CoV RdRp complex (Middle East respiratory syndrome-related coronavirus, UniProt K9N7C7)
[16] = biological target: HRV-16 RdRp (3Dpol) (Human rhinovirus 16, UniProt Q82122)
[17] = biological target: EV-71 RdRp (3Dpol) (Enterovirus A71, UniProt E5RPG3)
[18] = biological target: RSV RdRp complex (Human respiratory syncytial virus A, UniProt P28887)
[19] = biological target: HMPV RdRp complex (Human metapneumovirus, UniProt Q6WB93)
[20] = biological target: PIV-5 RdRp complex (Parainfluenza virus 5, UniProt Q88434)

human mitochondrial RNA polymerase (h-mtRNAP), sequence (O00411 42-1230 limits assumed): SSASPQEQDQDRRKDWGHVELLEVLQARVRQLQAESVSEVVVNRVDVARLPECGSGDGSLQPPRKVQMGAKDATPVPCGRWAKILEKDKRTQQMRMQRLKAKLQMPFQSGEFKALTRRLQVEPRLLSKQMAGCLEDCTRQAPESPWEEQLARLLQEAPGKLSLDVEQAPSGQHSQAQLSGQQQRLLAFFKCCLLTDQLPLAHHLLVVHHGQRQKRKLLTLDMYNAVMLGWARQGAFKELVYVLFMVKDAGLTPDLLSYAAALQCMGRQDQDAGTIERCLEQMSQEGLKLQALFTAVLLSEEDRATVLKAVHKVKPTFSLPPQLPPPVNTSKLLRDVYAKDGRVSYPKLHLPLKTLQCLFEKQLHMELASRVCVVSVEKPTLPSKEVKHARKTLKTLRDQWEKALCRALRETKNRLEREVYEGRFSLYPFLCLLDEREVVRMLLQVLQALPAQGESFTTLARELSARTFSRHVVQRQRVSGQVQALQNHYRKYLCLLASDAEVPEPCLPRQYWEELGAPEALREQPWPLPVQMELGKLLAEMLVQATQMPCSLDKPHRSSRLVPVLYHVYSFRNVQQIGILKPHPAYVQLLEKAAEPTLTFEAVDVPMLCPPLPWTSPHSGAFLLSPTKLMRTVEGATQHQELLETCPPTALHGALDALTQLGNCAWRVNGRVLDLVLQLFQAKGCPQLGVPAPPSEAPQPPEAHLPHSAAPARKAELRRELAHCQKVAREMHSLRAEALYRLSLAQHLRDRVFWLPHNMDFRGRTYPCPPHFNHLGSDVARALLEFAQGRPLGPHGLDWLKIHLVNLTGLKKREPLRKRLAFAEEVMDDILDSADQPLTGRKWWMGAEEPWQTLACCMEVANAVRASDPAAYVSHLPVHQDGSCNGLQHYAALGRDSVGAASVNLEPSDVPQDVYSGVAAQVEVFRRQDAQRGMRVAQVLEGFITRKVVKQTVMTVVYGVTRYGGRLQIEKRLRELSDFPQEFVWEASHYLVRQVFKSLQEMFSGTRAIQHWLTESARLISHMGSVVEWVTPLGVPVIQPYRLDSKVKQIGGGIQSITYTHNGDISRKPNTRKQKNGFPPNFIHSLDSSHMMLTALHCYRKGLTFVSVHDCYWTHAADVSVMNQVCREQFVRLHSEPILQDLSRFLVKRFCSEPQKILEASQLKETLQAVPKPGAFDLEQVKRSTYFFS

Q: `N#C[C@]1(COP(=O)(O)OP(=O)(O)OP(=O)(O)O)O[C@@H](c2ccc3c(N)ncnn23)[C@H](O)[C@@H]1O` [GS-646939] was tested. Which “Selectivity (fold), Vmax/Km ATP over Vmax/Km analog” value [1] did it give?
A: 1538 fold

Q: And the “CI average (CIavg) ± standard deviation” value [2]?
A: 0.04

Q: What about the “Preference for GS-646939 over GS-443902 under competitive conditions” value [2] of the same compound?
A: greater than 30 fold

Q: And the “CI average (CIavg) ± standard deviation” value [3]?
A: 0.07

Q: What about the “Preference for GS-646939 over GS-443902 under competitive conditions” value [3] of the same compound?
A: greater than 30 fold

Q: And the “Vmax (product fraction) of UTP incorporation at i + 1” value (from here on “Vmax (product fraction)”) [4]?
A: 0.79 ± 0.036

Q: And the “Vmax (product fraction)” value [5]?
A: 0.91 ± 0.10

Q: And the “Pattern of inhibition of RNA primer extension after incorporation at position i” value (“Pattern of inhibition … at position i” for short) [6]?
A: immediate chain-termination

Q: What about the “Vmax (product fraction)” value [6] of the same compound?
A: 0.83 ± 0.012

Q: What about the “Pattern of inhibition … at position i” value [7] of the same compound?
A: immediate chain-termination

Q: What about the “Vmax (product fraction)” value [7] of the same compound?
A: 0.81 ± 0.017

Q: What about the “Pattern of inhibition … at position i” value [8] of the same compound?
A: immediate chain termination

Q: And the “Vmax (product fraction)” value [8]?
A: 0.15 ± 0.0029

Q: And the “Pattern of inhibition … at position i” value [9]?
A: immediate chain termination

Q: And the “Vmax (product fraction)” value [9]?
A: 0.087 ± 0.030

Q: What about the “Pattern of inhibition … at position i” value [10] of the same compound?
A: immediate chain termination

Q: And the “Vmax (product fraction)” value [10]?
A: 0.61 ± 0.0099

Q: And the “Pattern of inhibition … at position i” value [11]?
A: immediate chain termination

Q: And the “Vmax (product fraction)” value [11]?
A: 0.058 ± 0.080

Q: What about the “Inhibition (fold) vs Template A” value [12] of the same compound?
A: ~2 fold and 2.0 fold

Q: What about the “UTP” value [12] of the same compound?
A: 1.0 µM

Q: What about the “Inhibition (fold) of UTP incorporation across embedded analog” value [13] of the same compound?
A: ~9 fold

Q: And the “Selectivity (fold), Vmax/Km ATP over Vmax/Km analog” value [14]?
A: 1.37 fold

Q: What about the “Selectivity (fold), Vmax/Km ATP over Vmax/Km analog” value [15] of the same compound?
A: 1.17 fold

Q: And the “Incorporated more efficiently than natural ATP counterpart” value [16]?
A: 20-50 fold

Q: What about the “Incorporated more efficiently than natural ATP counterpart” value [17] of the same compound?
A: 20-50 fold

Q: What about the “Selectivity (fold), Vmax/Km ATP over Vmax/Km analog” value [18] of the same compound?
A: 1.58 fold

Q: What about the “Selectivity (fold), Vmax/Km ATP over Vmax/Km analog” value [19] of the same compound?
A: 1.73 fold

Q: What about the “Selectivity (fold), Vmax/Km ATP over Vmax/Km analog” value [20] of the same compound?
A: 5.05 fold
